Data from patent US9181259B2 (LEO PHARMA A/S, priority 2012, dated 2015).
Structures can show the parent of a compound that is named as a salt. Each block holds one compound with its values, some of them ahead of it.

Assays:
[1] = target: T1, NK1 receptor (Homo sapiens, UniProt P25103); assay: NK1 receptor mediated intracellular [Ca2+] mobilization in U251 MG cells using FLIPR; format: cell-based; conditions: antagonist potency against Substance P (EC80), normalized to 100 nM Aprepitant, read-out: U251MG (FLIPR pIC50) (converted)
T1 construct: Measurement of NK1 Receptor Mediated Intracellular [Ca^2+]; Mobilization in U251 MG Cells Using FLIPR; endogenous in cells; host or cells: U251 MG cells
T1 sequence (P25103 whole entry): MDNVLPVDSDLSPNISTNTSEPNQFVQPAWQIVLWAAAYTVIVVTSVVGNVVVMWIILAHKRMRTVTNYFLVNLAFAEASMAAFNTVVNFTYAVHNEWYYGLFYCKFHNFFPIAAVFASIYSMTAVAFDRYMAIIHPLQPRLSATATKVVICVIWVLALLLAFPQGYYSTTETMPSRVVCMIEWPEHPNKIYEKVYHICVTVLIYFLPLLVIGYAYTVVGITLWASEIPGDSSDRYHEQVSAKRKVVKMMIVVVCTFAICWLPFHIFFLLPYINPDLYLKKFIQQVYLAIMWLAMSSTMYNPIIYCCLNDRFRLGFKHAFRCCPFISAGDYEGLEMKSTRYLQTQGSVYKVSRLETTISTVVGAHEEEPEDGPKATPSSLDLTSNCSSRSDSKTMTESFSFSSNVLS
Outline: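 Fluo-4-loaded U251 MG cells were preincubated with compound (0.5% DMSO final), with any agonist effect read for 5 min, then 10 min more at 37 °C before Substance P at EC80. Peak FLIPR fluorescence change was read, and IC50 came from a four-parameter fit as the midpoint between fitted top and bottom.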

[2] = Hepatic intrinsic clearance following incubation in human liver microsomes; format: in vitro ADME; conditions: NADPH regenerating system, 0-30 min, 37 °C
Experimental: Hepatic Extraction Ratio from Hepatic Intrinsic Clearance Following Incubation in Human Liver Microsomes
The general procedure consists of an automated incubation system and LC-MS/MS analysis with human liver microsomes. Human liver microsomes are thawed rapidly in a waterbath at 37° C. and kept on ice until use. The human liver microsomes are diluted with 50 mM potassium phosphate buffer pH 7.4 to a protein concentration of 0.55 mg/mL. Test compounds and positive controls (Verapamil and Dextromethorphan, positive controls for CYP3A4 for CYP2D6 isoforms, respectively) are dissolved in methanol (or other appropriate solvent, if necessary) in order to obtain a 5 mM solution which is further diluted to the concentration of 50 μM. The stock solutions are prepared immediately before the test.
5 μL of 50 μM test compounds and controls are added to 445 μL-of the 0.55 mg/mL microsomes solution and the incubation mixture are pre-warmed at 37° C. for 5 minutes.
The incubation reactions are initiated by adding 50 μL of pre-warmed NADPH regenerating system to the incubation mixtures. 50 μL-aliquots will be taken from the incubation mixtures at: 0, 3, 6, 9, 15 and 30 minutes and the reactions are stopped by adding 100 μL of ACN containing Rolipram, used as generic Internal Standard (1S). Samples are then diluted with 120 μL of Milli-Q water and centrifuged at 3000 rpm for 10 minutes, prior the LC-MS/MS analysis.
The integrated peak areas for test compounds at the selected time points are divided by the respective peak areas of the IS and the percent of parent remaining is calculated by normalizing the peak area ratio of parent to IS at 0 min. Observed rate constant (kobs) for parent degradation is calculated by determining the slope of the line of the graph of the natural log of percentage parent remaining versus time of incubation. From the rate of depletion (min-1) and volume of the incubation (mL), clearance is estimated. This is scaled for the protein in the incubation relative to that in the intact liver, for all species (mL/min/g liver).
Values for the Human in vitro Clint are expressed as mL/min/g liver.
Assuming a liver weight of 25.7 g/kg and a liver blood flow of 20.7 mL/min/kg, the hepatic extraction ratio, Eh, can be derived from the Human in vitro Clint:
E.g. a Human in vitro Clint of 2.4 mL/min/g liver corresponds to a hepatic extraction ratio of 75%.
Some compounds of the present invention were tested according to example 121.

SMILES: Cc1ccccc1[C@H]1[C@@H]2CC(CCO)(CCO)C(=O)N2CCN1C(=O)N(C)[C@H](C)c1cc(C(F)F)cc(C(F)(F)F)c1 [Compound 97, (1S,8aS)-N-((R)-1-(3-(difluoromethyl)-5-(trifluoromethyl)phenyl)ethyl)-7,7-bis(2-hydroxyethyl)-N-methyl-6-oxo-1-o-tolylhexahydropyrrolo[1,2-a]pyrazine-2(1H)-carboxamide]
IC50 [1]: 0.0501 nM | Human in vitro Clint (mL/min/g liver) [2]: 14 mL/min/g liver

SMILES: Cc1ccccc1[C@H]1[C@@H]2CC(CCO)(CCO)C(=O)N2CCN1C(=O)N(C)[C@H](C)c1cc(C(F)F)cc(C(F)(F)F)c1 [Compound 98, (1S,8aS)-N-((R)-1-(3-(difluoromethyl)-5-(trifluoromethyl)phenyl)ethyl)-7,7-bis(2-hydroxyethyl)-N-methyl-6-oxo-1-o-tolylhexahydropyrrolo[1,2-a]pyrazine-2(1H)-carboxamide]
IC50 [1]: 0.117 nM | Human in vitro Clint (mL/min/g liver) [2]: 4.0 mL/min/g liver

SMILES: Cc1ccccc1[C@H]1[C@@H]2CC(CCO)(CCO)C(=O)N2CCN1C(=O)N(C)[C@@H](C)c1cc(C(F)(F)F)cc(C(F)(F)F)c1 [Compound 99, (1S,8aS)-N-((S)-1-(3,5-bis(trifluoromethyl)phenyl)ethyl)-7,7-bis(2-hydroxyethyl)-N-methyl-6-oxo-1-o-tolylhexahydropyrrolo[1,2-a]pyrazine-2(1H)-carboxamide]
IC50 [1]: 0.166 nM | Human in vitro Clint (mL/min/g liver) [2]: 5.4 mL/min/g liver

SMILES: Cc1ccccc1[C@H]1[C@@H]2CC3(CCOCC3)C(=O)N2CCN1C(=O)N(C)[C@H](C)c1cc(C(F)(F)F)cc(C(F)(F)F)c1 [Compound 100, (1′S,8a′S)-N-((R)-1-(3,5-bis(trifluoromethyl)phenyl)ethyl)-N-methyl-6′-oxo-1′-o-tolyloctahydro-1′H-spiro[pyran-4,7′-pyrrolo[1,2-a]pyrazine]-2′(6′H)-carboxamide]
IC50 [1]: 0.126 nM | Human in vitro Clint (mL/min/g liver) [2]: 3.0 mL/min/g liver

SMILES: Cc1cc([C@@H](C)N(C)C(=O)N2CCN3C(=O)C4(CCOCC4)C[C@H]3[C@@H]2c2ccccc2C)cc(C(F)(F)F)c1 [Compound 101]
IC50 [1]: 0.0251 nM | Human in vitro Clint (mL/min/g liver) [2]: 6.9 mL/min/g liver

SMILES: Cc1cc([C@@H](C)N(C)C(=O)N2CCN3C(=O)C(CO)C[C@H]3[C@@H]2c2ccccc2C)cc(C(F)(F)F)c1 (stereo partly drawn) [Compound 102, (1S,8aS)-7-(hydroxymethyl)-N-methyl-N-((R)-1-(3-methyl-5-(trifluoromethyl)phenyl)ethyl)-6-oxo-1-o-tolylhexahydropyrrolo[1,2-a]pyrazine-2(1H)-carboxamide]
IC50 [1]: 0.214 nM | Human in vitro Clint (mL/min/g liver) [2]: 5.6 mL/min/g liver

SMILES: Cc1cc([C@@H](C)N(C)C(=O)N2CCN3C(=O)C(CO)(CO)C[C@H]3[C@@H]2c2ccccc2C)cc(C(F)(F)F)c1 [Compound 103, (1S,8aS)-7,7-bis(hydroxymethyl)-N-methyl-N-((R)-1-(3-methyl-5-(trifluoromethyl)phenyl)ethyl)-6-oxo-1-o-tolylhexahydropyrrolo[1,2-a]pyrazine-2(1H)-carboxamide]
IC50 [1]: 0.0794 nM | Human in vitro Clint (mL/min/g liver) [2]: 4.8 mL/min/g liver

SMILES: Cc1ccccc1[C@H]1[C@@H]2CC(CO)(CO)C(=O)N2CCN1C(=O)N(C)[C@H](C)c1cc(C(F)(F)F)cc(C(F)(F)F)c1 [Compound 104, (1S,8aS)-N-((R)-1-(3,5-bis(trifluoromethyl)phenyl)ethyl)-7,7-bis(hydroxymethyl)-N-methyl-6-oxo-1-o-tolylhexahydropyrrolo[1,2-a]pyrazine-2(1H)-carboxamide]
IC50 [1]: 0.1 nM | Human in vitro Clint (mL/min/g liver) [2]: 3.1 mL/min/g liver

SMILES: Cc1ccccc1[C@H]1[C@@H]2CC3(CCN(C)CC3)C(=O)N2CCN1C(=O)N(C)[C@H](C)c1cc(C(F)(F)F)cc(C(F)(F)F)c1 [Compound 105, (1′S,8a′S)-N-((R)-1-(3,5-bis(trifluoromethyl)phenyl)ethyl)-N,1-dimethyl-6′-oxo-1′-o-tolyltetrahydro-1′H-spiro[piperidine-4,7′-pyrrolo[1,2-a]pyrazine]-2′(6′H)-carboxamide, formic acid salt]
IC50 [1]: 0.24 nM | Human in vitro Clint (mL/min/g liver) [2]: 1.2 mL/min/g liver

SMILES: Cc1ccccc1[C@H]1[C@@H]2CC3(CCNCC3)C(=O)N2CCN1C(=O)N(C)[C@H](C)c1cc(C(F)(F)F)cc(C(F)(F)F)c1 [Compound 106, (1′S,8a′S)-N-((R)-1-(3,5-bis(trifluoromethyl)phenyl)ethyl)-N-methyl-6′-oxo-1′-o-tolyltetrahydro-1′H-spiro[piperidine-4,7′-pyrrolo[1,2-a]pyrazine]-2′(6′(6′H)-carboxamide, formic acid salt]
IC50 [1]: 0.115 nM | Human in vitro Clint (mL/min/g liver) [2]: 0.19 mL/min/g liver

SMILES: Cc1cc([C@@H](C)N(C)C(=O)N2CCN3C(=O)CC[C@H]3[C@@H]2c2ccccc2C)cc(C(F)(F)F)c1 [Compound 107, (1S,8aS)-N-methyl-N-((R)-1-(3-methyl-5-(trifluoromethyl)phenyl)ethyl)-6-oxo-1-o-tolylhexahydropyrrolo[1,2-a]pyrazine-2(1H)-carboxamide]
IC50 [1]: 0.107 nM | Human in vitro Clint (mL/min/g liver) [2]: 9.2 mL/min/g liver

SMILES: Cc1ccccc1[C@H]1[C@@H]2CC(CO)(CO)C(=O)N2CCN1C(=O)N(C)[C@H](C)c1cc(Cl)cc(C(F)(F)F)c1 [Compound 108, (1S,8aS)-N-((R)-1-(3-chloro-5-(trifluoromethyl)phenyl)ethyl)-7,7-bis(hydroxymethyl)-N-methyl-6-oxo-1-o-tolylhexahydropyrrolo[1,2-a]pyrazine-2(1H)-carboxamide]
IC50 [1]: 0.0316 nM | Human in vitro Clint (mL/min/g liver) [2]: 4.3 mL/min/g liver

Continued, values first:

IC50 [1]: 0.1 nM | Human in vitro Clint (mL/min/g liver) [2]: 13 mL/min/g liver
SMILES: CCc1cc([C@@H](C)N(C)C(=O)N2CCN3C(=O)CC[C@H]3[C@@H]2c2ccccc2C)cc(C(F)(F)F)c1 [Compound 109, (1S,8aS)-N-((R)-1-(3-ethyl-5-(trifluoromethyl)phenyl)ethyl)-N-methyl-6-oxo-1-o-tolylhexahydropyrrolo[1,2-a]pyrazine-2(1H)-carboxamide]

IC50 [1]: 0.0631 nM | Human in vitro Clint (mL/min/g liver) [2]: 13 mL/min/g liver
SMILES: CCc1cc([C@@H](C)N(C)C(=O)N2CCN3C(=O)C(CCO)(CCO)C[C@H]3[C@@H]2c2ccccc2C)cc(C(F)(F)F)c1 [Compound 110, (1S,8aS)-N-((R)-1-(3-ethyl-5-(trifluoromethyl)phenyl)ethyl)-7,7-bis(2-hydroxyethyl)-N-methyl-6-oxo-1-o-tolylhexahydropyrrolo[1,2-a]pyrazine-2(1H)-carboxamide]

IC50 [1]: 0.0617 nM | Human in vitro Clint (mL/min/g liver) [2]: 3.7 mL/min/g liver
SMILES: Cc1cc([C@@H](CO)N(C)C(=O)N2CCN3C(=O)C(CCO)(CCO)C[C@H]3[C@@H]2c2ccccc2C)cc(C(F)(F)F)c1 [Compound 111, (1S,8aS)-N-((S)-2-hydroxy-1-(3-methyl-5-(trifluoromethyl)phenyl)ethyl)-7,7-bis(2-hydroxyethyl)-N-methyl-6-oxo-1-o-tolylhexahydropyrrolo[1,2-a]pyrazine-2(1H)-carboxamide]

IC50 [1]: 0.0316 nM | Human in vitro Clint (mL/min/g liver) [2]: 51 mL/min/g liver
SMILES: Cc1ccccc1[C@H]1[C@@H]2CCC(=O)N2CCN1C(=O)N(C)[C@H](C)c1cc(C(C)C)cc(C(F)(F)F)c1 [Compound 112, (1S,8aS)-N-((R)-1-(3-isopropyl-5-(trifluoromethyl)phenyl)ethyl)-N-methyl-6-oxo-1-o-tolylhexahydropyrrolo[1,2-a]pyrazine-2(1H)-carboxamide]

IC50 [1]: 0.0316 nM | Human in vitro Clint (mL/min/g liver) [2]: 56 mL/min/g liver
SMILES: Cc1ccccc1[C@H]1[C@@H]2CC(CCO)(CCO)C(=O)N2CCN1C(=O)N(C)[C@H](C)c1cc(C(C)C)cc(C(F)(F)F)c1 [Compound 113, (1S,8aS)-7,7-bis(2-hydroxyethyl)-N-((R)-1-(3-isopropyl-5-(trifluoromethyl)phenyl)ethyl)-N-methyl-6-oxo-1-o-tolylhexahydropyrrolo[1,2-a]pyrazine-2(1H)-carboxamide]
